Assay results reported in BindingDB's records for doi:10.1016/s0014-2999(98)00246-5 (The Royal Danish School of Pharmacy, 1998).

Assays:
[1] = molecular target: Metabotropic glutamate receptor 5 (Rattus norvegicus, UniProt P31424)
[2] = molecular target: Metabotropic glutamate receptor 1 (Rattus norvegicus, UniProt P23385)
[3] = molecular target: Metabotropic glutamate receptor 4 (Rattus norvegicus, UniProt P31423)
[4] = molecular target: Metabotropic glutamate receptor 2 (Homo sapiens, UniProt Q14416)

Measured: Ki

Chain of Metabotropic glutamate receptor 2 (Q14416 whole entry): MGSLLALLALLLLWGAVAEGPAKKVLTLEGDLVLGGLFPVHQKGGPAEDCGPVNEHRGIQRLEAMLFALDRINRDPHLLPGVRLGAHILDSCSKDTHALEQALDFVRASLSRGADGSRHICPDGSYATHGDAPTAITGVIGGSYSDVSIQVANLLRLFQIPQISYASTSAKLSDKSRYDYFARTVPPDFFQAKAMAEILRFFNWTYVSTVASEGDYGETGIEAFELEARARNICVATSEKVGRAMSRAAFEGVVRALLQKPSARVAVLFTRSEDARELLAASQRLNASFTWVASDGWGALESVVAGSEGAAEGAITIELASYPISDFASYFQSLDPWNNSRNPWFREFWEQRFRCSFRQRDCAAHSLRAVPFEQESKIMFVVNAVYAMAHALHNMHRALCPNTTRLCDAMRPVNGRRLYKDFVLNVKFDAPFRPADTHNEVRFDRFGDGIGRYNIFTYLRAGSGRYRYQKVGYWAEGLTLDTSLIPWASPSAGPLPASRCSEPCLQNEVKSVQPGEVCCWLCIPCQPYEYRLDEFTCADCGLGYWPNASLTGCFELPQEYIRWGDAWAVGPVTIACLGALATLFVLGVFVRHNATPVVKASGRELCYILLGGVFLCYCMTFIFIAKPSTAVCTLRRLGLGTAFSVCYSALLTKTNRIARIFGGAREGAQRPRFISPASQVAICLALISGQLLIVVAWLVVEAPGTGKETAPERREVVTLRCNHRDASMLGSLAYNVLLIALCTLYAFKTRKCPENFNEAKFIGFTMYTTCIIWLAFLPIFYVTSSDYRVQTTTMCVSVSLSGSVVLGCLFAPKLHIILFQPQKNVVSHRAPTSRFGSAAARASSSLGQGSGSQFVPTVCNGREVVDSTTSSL
Chain of Metabotropic glutamate receptor 1 (P23385 whole entry): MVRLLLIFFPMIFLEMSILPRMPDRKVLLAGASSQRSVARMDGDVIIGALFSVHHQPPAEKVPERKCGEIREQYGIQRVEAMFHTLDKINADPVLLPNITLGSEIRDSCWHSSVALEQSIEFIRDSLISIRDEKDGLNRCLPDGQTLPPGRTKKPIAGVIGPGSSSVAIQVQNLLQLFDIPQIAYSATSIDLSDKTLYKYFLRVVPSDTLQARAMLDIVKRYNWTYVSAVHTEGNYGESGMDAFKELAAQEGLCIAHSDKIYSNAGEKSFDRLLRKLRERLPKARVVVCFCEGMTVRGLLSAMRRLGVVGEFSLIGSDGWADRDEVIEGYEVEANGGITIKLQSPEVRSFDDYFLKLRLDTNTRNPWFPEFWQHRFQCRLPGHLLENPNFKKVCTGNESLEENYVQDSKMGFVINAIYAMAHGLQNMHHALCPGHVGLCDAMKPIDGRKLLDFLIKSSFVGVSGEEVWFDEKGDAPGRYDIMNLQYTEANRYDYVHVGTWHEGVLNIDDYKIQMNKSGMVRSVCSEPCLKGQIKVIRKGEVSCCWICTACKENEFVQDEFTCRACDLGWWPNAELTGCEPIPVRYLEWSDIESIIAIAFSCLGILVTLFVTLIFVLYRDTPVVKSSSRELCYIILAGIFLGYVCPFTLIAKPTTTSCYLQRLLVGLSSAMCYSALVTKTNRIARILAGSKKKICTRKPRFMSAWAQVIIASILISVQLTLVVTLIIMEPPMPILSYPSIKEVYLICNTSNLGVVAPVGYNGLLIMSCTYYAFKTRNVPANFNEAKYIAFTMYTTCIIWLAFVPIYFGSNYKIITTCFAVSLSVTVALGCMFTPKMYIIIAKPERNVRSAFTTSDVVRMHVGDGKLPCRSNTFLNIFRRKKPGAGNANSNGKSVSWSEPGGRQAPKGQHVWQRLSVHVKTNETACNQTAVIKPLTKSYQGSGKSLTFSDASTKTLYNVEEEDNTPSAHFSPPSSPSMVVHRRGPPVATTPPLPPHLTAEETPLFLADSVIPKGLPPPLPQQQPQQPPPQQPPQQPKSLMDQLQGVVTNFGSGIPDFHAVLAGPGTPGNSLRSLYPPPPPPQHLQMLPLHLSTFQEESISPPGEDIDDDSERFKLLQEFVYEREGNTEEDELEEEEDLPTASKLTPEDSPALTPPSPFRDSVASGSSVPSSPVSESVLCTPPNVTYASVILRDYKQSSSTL
Chain of Metabotropic glutamate receptor 4 (P31423 whole entry): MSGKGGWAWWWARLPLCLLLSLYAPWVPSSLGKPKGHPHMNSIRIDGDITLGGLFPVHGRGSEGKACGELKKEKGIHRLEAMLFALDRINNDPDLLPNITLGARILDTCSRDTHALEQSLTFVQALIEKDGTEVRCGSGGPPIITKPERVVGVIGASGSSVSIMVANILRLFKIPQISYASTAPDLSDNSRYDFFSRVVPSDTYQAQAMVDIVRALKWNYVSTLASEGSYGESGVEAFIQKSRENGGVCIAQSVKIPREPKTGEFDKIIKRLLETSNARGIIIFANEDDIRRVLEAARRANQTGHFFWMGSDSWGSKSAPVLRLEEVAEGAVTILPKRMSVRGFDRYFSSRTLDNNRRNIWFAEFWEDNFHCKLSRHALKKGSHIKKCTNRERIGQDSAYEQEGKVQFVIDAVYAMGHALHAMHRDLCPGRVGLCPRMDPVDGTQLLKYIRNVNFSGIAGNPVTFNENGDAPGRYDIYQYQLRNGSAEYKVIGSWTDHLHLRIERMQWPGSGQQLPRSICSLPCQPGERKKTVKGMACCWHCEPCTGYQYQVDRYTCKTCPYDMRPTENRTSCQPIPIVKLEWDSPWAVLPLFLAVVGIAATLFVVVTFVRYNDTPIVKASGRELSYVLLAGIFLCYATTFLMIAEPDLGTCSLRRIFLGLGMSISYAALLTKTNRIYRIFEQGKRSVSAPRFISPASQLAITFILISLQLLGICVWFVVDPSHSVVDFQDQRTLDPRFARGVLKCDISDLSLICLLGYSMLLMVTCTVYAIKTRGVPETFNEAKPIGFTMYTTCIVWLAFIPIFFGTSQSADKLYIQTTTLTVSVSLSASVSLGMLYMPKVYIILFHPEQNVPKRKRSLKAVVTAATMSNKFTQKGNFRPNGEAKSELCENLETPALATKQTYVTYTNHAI
Chain of Metabotropic glutamate receptor 5 (P31424 whole entry): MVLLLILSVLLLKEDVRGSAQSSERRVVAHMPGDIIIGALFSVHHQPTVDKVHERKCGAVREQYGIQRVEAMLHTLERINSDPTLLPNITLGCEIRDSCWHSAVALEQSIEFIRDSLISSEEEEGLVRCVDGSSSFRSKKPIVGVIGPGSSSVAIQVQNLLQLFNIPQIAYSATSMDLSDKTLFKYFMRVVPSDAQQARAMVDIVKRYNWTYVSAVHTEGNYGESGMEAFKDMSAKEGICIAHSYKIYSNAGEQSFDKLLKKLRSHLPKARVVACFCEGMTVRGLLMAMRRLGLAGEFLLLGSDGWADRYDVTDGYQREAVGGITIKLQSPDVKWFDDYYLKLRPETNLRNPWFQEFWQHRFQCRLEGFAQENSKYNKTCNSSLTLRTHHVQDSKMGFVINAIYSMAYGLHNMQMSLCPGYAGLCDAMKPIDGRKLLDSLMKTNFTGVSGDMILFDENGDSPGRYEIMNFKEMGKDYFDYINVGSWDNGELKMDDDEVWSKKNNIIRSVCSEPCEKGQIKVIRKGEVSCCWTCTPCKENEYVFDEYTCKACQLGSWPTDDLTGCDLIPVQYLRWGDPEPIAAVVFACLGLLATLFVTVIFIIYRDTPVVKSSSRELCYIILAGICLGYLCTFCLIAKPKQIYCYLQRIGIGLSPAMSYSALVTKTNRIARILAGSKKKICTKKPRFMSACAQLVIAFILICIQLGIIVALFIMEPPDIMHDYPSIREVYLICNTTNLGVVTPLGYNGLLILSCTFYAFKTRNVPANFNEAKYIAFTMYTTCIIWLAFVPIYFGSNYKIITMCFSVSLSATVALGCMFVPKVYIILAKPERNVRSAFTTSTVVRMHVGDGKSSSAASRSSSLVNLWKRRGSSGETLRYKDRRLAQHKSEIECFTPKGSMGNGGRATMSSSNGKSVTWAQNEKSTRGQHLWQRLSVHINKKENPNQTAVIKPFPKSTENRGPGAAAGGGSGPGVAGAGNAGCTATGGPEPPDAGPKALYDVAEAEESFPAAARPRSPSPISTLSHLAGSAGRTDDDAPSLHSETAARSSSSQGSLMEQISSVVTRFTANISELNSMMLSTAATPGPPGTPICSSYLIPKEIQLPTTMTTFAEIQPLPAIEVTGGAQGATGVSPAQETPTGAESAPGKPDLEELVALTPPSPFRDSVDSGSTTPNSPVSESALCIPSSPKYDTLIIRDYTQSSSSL

N[C@H](C(=O)O)c1ccc(C(=O)O)cc1 [4-((S)-Amino-carboxy-methyl)-benzoic acid]
> 10 µM: [1] | [2]

Cc1c(C[C@H](N)C(=O)O)o[nH]c1=O [(2S)-2-amino-3-(3-hydroxy-4-methyl-1,2-oxazol-5-yl)propanoic acid]
> 10 µM: [3] | [1] | [4]

CCCCc1c(C[C@H](N)C(=O)O)o[nH]c1=O [(R)-Bu-HIBO]
> 10 µM: [3] | [1] | [2] | [4]

Cc1c(C[C@@H](N)C(=O)O)o[nH]c1=O [(S)-4-Methylhomoibotenic acid]
> 10 µM: [3] | [1] | [2] | [4]

NC(C(=O)O)c1cc(=O)[nH]o1 (stereo unspecified) [Amino-(3-hydroxy-isoxazol-5-yl)-acetic acid(Ibotenic acid)]
> 10 µM: [3] | [1] | [2]

N[C@H](CCCC(=O)O)C(=O)O [CAS_542-32-5]
> 10 µM: [3] | [1] | [2] | [4]

CCCCc1c(O)noc1C[C@@H](N)C(=O)O [CAS_77006-30-5]
> 10 µM: [3] | [1] | [2] | [4]

N[C@@H](Cc1cc(=O)[nH]o1)C(=O)O [CAS_194385]
> 10 µM: [3] | [1] | [2] | [4]

N[C@H](Cc1cc(=O)[nH]o1)C(=O)O [CAS_194385]
> 10 µM: [3] | [1] | [2] | [4]

N[C@@H](CCC(=O)O)C(=O)O [L-Glutamic acid]
> 10 µM: [3]

N[C@@H](Cc1o[nH]c(=O)c1Br)C(=O)O [NSC_2733518]
> 10 µM: [3] | [1] | [2] | [4]

N[C@H](Cc1onc(O)c1Br)C(=O)O [NSC_2733518]
> 10 µM: [3] | [1] | [2] | [4]
